Values of other authors as cited in patent publication US12576027B2, “Diclofenac topical formulation with a high absorption rate” (IBSA INSTITUT BIOCHIMIQUE SA, priority 2021, dated 2026).

Settings: orally administered

O=C(O)Cc1ccccc1Nc1c(Cl)cccc1Cl [diclofenac, 2-[(2,6-dichlorophenyl)-amino]benzeneacetic acid]
absorption: almost complete | time to high hematic peaks from administration: ≤ 2 h
